Experiments:
Type in all cases: functional
Plutella xylostella [1] = assay: Insecticidal activity against Plutella xylostella (diamondback moth) fed on artificial diet containing compound assessed as mortality at 125 ug/ml after 96 hr
Plutella xylostella [2] = assay: Insecticidal activity against Plutella xylostella (diamondback moth) fed on artificial diet containing compound assessed as mortality at 250 ug/ml after 96 hr
Helicoverpa armigera [3] = assay: Insecticidal activity against Helicoverpa armigera fed on artificial diet containing compound assessed as mortality at 62.5 ug/ml after 96 hr
Helicoverpa armigera [4] = assay: Insecticidal activity against Helicoverpa armigera fed on artificial diet containing compound assessed as mortality at 1000 ug/ml after 96 hr
Helicoverpa armigera [5] = assay: Insecticidal activity against Helicoverpa armigera fed on artificial diet containing compound assessed as mortality at 500 ug/ml after 96 hr
Helicoverpa armigera [6] = assay: Insecticidal activity against Helicoverpa armigera fed on artificial diet containing compound assessed as mortality at 125 ug/ml after 96 hr
Helicoverpa armigera [7] = assay: Insecticidal activity against Helicoverpa armigera fed on artificial diet containing compound assessed as mortality at 31.25 ug/ml after 96 hr
Helicoverpa armigera [8] = assay: Insecticidal activity against Helicoverpa armigera fed on artificial diet containing compound assessed as mortality at 250 ug/ml after 96 hr
Plutella xylostella [9] = assay: Insecticidal activity against Plutella xylostella (diamondback moth) fed on artificial diet containing compound assessed as mortality at 500 ug/ml after 96 hr
Plutella xylostella [10] = assay: Insecticidal activity against Plutella xylostella (diamondback moth) fed on artificial diet containing compound assessed as mortality at 31.25 ug/ml after 96 hr
Plutella xylostella [11] = assay: Insecticidal activity against Plutella xylostella (diamondback moth) fed on artificial diet containing compound assessed as mortality at 62.5 ug/ml after 96 hr
Plutella xylostella [12] = assay: Insecticidal activity against Plutella xylostella (diamondback moth) fed on artificial diet containing compound assessed as mortality at 1000 ug/ml after 96 hr

Compound | mortality at 125 µg/mL (Plutella xylostella [1]) | mortality at 250 µg/mL (Plutella xylostella [2]) | mortality at 62.5 µg/mL (Helicoverpa armigera [3]) | mortality at 1000 µg/mL (Helicoverpa armigera [4]) | mortality at 500 µg/mL (Helicoverpa armigera [5]) | mortality at 125 µg/mL (Helicoverpa armigera [6]) | mortality at 31.25 µg/mL (Helicoverpa armigera [7]) | mortality at 250 µg/mL (Helicoverpa armigera [8]) | mortality at 500 µg/mL (Plutella xylostella [9]) | mortality at 31.25 µg/mL (Plutella xylostella [10]) | mortality at 62.5 µg/mL (Plutella xylostella [11]) | mortality at 1000 µg/mL (Plutella xylostella [12])
Cc1ccccc1NC(=O)c1ccccc1OCc1ccc(Cl)nc1 | 0% | 0% | 0% | 0% | 0% | 0% | 0% | 0% | 0% | 0% | 0% | 0%
Cc1cc(Cl)ccc1NC(=O)c1ccccc1OCc1ccc(Cl)nc1 | 41% | 41% | 0% | 100% | 41% | 0% | 0% | 41% | 41% | 0% | 0% | 100%
O=C(Nc1ccc(F)cc1)c1ccccc1OCc1ccc(Cl)nc1 | 41% | 41% | 0% | 41% | 41% | 41% | 0% | 41% | 81% | 0% | 0% | 100%
O=C(Nc1ccc(I)cc1)c1ccccc1OCc1ccc(Cl)nc1 | 41% | 100% | 0% | 0% | 0% | 0% | 0% | 0% | 100% | 0% | 0% | 100%
O=C(Nc1cc(Cl)c(OC(F)(F)C(F)F)c(Cl)c1)c1ccccc1OCc1ccc(Cl)nc1 | 100% | 100% | 0% | 100% | 41% | 0% | 0% | 41% | 100% | 41% | 41% | 100%
CC(C)NC(=O)c1ccccc1OCc1ccc(Cl)nc1 | 41% | 100% | 0% | 41% | 41% | 0% | 0% | 0% | 100% | 0% | 0% | 100%
CC(C)N(C(=O)c1ccccc1OCc1ccc(Cl)nc1)C(C)C | 41% | 100% | 0% | 100% | 100% | 41% | 0% | 41% | 100% | 0% | 0% | 100%
CCN(CC)C(=O)c1ccccc1OCc1ccc(Cl)nc1 | 0% | 0% | 0% | 41% | 0% | 0% | 0% | 0% | 0% | 0% | 0% | 41%
N#CCN(C(=O)c1ccccc1OCc1ccc(Cl)nc1)c1ccccc1 | 0% | 0% | 0% | 100% | 81% | 41% | 0% | 41% | 0% | 0% | 0% | 0%
O=C(c1ccccc1OCc1ccc(Cl)nc1)N1CCCCC1 | 0% | 0% | 0% | 41% | 0% | 0% | 0% | 0% | 41% | 0% | 0% | 41%
O=C(c1ccccc1OCc1ccc(Cl)nc1)N1CCOCC1 | 0% | 0% | 0% | 100% | 41% | 0% | 0% | 0% | 0% | 0% | 0% | 41%
COc1ccc(NC(=O)c2ccccc2OCc2ccc(Cl)nc2)cc1 | 100% | 100% | 0% | 0% | 0% | 0% | 0% | 0% | 100% | 41% | 81% | 100%
O=C(Nc1ccccc1)c1ccccc1OCc1ccc(Cl)nc1 | 41% | 41% | 0% | 0% | 0% | 0% | 0% | 0% | 81% | 0% | 0% | 81%
O=C(NC1CCCCC1)c1ccccc1OCc1ccc(Cl)nc1 | 0% | 0% | 0% | 0% | 0% | 0% | 0% | 0% | 0% | 0% | 0% | 41%
O=C(Nc1ccc(Br)cc1)c1ccccc1OCc1ccc(Cl)nc1 | 100% | 100% | 61% | 100% | 100% | 81% | 61% | 81% | 100% | 41% | 100% | 100%
CC(C)c1ccc(NC(=O)c2ccccc2OCc2ccc(Cl)nc2)cc1 | 41% | 100% | 41% | 100% | 81% | 61% | 41% | 61% | 100% | 0% | 41% | 100%
O=C(Nc1ccc(C(F)(F)F)cc1)c1ccccc1OCc1ccc(Cl)nc1 | 100% | 100% | 100% | 100% | 100% | 100% | 61% | 100% | 100% | 81% | 100% | 100%
O=C(Nc1cc(C(F)(F)F)cc(C(F)(F)F)c1)c1ccccc1OCc1ccc(Cl)nc1 | 0% | 0% | 0% | 0% | 0% | 0% | 0% | 0% | 0% | 0% | 0% | 0%
O=C(Nc1ccccn1)c1ccccc1OCc1ccc(Cl)nc1 | 0% | 41% | 0% | 0% | 0% | 0% | 0% | 0% | 41% | 0% | 0% | 100%
